Entries after “also recorded” stand apart in the source; their conditions may differ.
Experiments:
[1] = tested on: CHO-K1 cells; experiment: MTT cell viability assay in wild-type CHO-K1 cells
Procedure: (§4) Initial cell growth studies were carried out to investigate the effect of combination toremifene +doxorubicin in doxorubicin sensitive and resistant cells. Cell cultures were carried out using wild type CHO-K1 cells as well as CHO-Adr cells, the latter being selected by a series of step-wise selections of doxorubicin resistant clones in presence of 0.4 ug/ml of doxorubicin. […] The resistant cells were stable in cell culture in the absence of doxorubicin. Both cell lines were cultivated in Hams F10 medium supplemented with 5% newborn calf serum, 5% foetal calf serum, antibiotics and 3mM glutamine. The cells were maintained as monolayer cultures 37° C. under 5% CO2. Drug sensitivity in CHO-K1and CHO-Adr cells was assessed by a semi-automated colorimetric MTT assay. The assay is dependent on the cellular reduction of MTT (3-U4,5-dimethylthiazol-2-ylA-2,5-diphenyl tertazolium bromide, thiazolyl blue) by the mitochondrial dehydrogenase of viable cells to a blue formazan product which was measured spectrophotometrically. The cells were seeded on 96-well plates and allowed to settle for 12 hours at 37° C. in 5% CO2. Appropriate drug concentrations diluted in growth medium were added for 24 hours. Toremifene was dissolved in 95% ethanol stock solution, doxorubicin stock solution was prepared in water. […] The cells were incubated with the drugs for 24 hours, after which the cells were washed twice with phosphate buffered saline before being placed in 200 μl fresh medium for a further 48 hours. At the end of this incubation 0.1 mg MTT was added to each well and incubated for 4 hours. The medium was carefully aspirated and the crystals were solubilised in 100 μ l DMSO (dimethyl sulfoxide). Absorbances at 540 nm were read immediately on an ELISA Multiskan reader. The results were expressed as a percentage of absorbance of drug treated cells compared to controls.
(§5) The effect of AAG in the concentration of 0.1 to 2 mg/ml was assessed on the potentiation produced by toremifene.

[2] = tested on: CHO-Adr cells; experiment: MTT cell viability assay in doxorubicin resistant CHO-Adr cells
Procedure: as §4, §5

[3] = tested on: MCF-7/DOX; experiment: Sensitization of MCF-7/DOX by patients' plasma ultrafiltrate; type: cell-based, human; conditions: FIG. 8
Procedure: Cells were growth in Corning 75-cm^2 tissue flasks and were maintained in exponential growth using RPMI 1640 medium supplemented with 5% fetal bovine serum in 5% CO2 and 95% air. […] The cells were cultivated in 100 ul volumes in 96-well microtiter plates. The principle of the method was to cultivate cells in the presence of the drugs/ drug combinations for 48 hours. After this time the living cells were stained with methylene blue and quantitated spectrophotometrically using microtiter plate reader (Titertek Model MCC/340) interfaced to an Apple IIe computer. Inhibition of the cell growth is expressed as a percentage of absorbance of vehicle treated control cultures. Human plasma samples were obtained from patients participating clinical phase I studies receiving 10, 20, 40, 60, 200 or 400 mg toremifene daily for eight weeks. Ultrafiltrate from the plasma was prepared by placing plasma specimens in Amicon CF-10 filters (MW cutoff 10 000) followed by centrifugation at 5000×g for 20 minutes. The ultrafiltrates were used in order to study if the concentrations achieved clinically were able to sensitize MCF-7/DOX. Part of the growth medium was replaced by plasma ultrafiltrate and the cells were allowed to grow for 4 days, at which time they were stained and quantitated as described above.

[4] = tested on: Lewis Lung (LL) tumor; experiment: Schedule dependency of antitumor effect in Lewis Lung tumor; conditions: toremifene 150 mg/kg p.o. days 1-5
Procedure: (§1) Lewis Lung (LL) or melanoma B-16 tumor cells, 2×10^6 cells/animal, were inoculated intramuscularly to female C-57 mice. Tumors were allowed to grow to the mean diameter of 1.5 cm after which toremifene/doxorubicin treatments were started as indicated in the next tables. Tumor size was measured before treatment and after 10 days in 2 dimensions and the mean was considered as tumor diameter. Weight of the animals was also recorded.

[5] = tested on: Human melanoma UV-me-1; experiment: Toremifene and doxorubicin in human melanoma UV-me-1; conditions: doxorubicin 0 μg/ml, 2 days, control 100
[6] = in vitro; conditions: hamster, cho-adr cells
Procedure: as §4, §5

[7] = mouse, in vivo
Procedure: (§2) Pieces of fresh human tumors were implanted under the outer capsule of mouse kidney. Mice were treated with different combinations of cytotoxic drugs (doses preselected according to toxicity of each combination), with or without toremifene (150 mg/kg p.o.). Control animals received saline injections. The drugs were given on five consecutive days after the inoculation of the tumors. The sizes of the tumor pieces were measured by stereo microscope equipped with ocular micrometer immediately after inoculation (initial size) and on the sixth day when the animals were killed (final size). The difference final size - initial size describes the growth or regression of the tumor. The measuring unit was ocular micrometer unit (omu). 10 omu is identical to 1.0 mm. In addition to the tumor size, the weight gain of the animals was measured. The weight gain describes the toxicity of the treatment. In general, the ratio final weight/ pretest weight should be more than 0.80. Otherwise the toxicity is considered unacceptable.

[8] = tested on: Ovarian ca.; conditions: subrenal capsule assay, all tumor types
Procedure: as §2

[9] = tested on: α1 -acid glycoprotein (AAG); conditions: cited from earlier work
[10] = tested on: B-16 melanoma; experiment: Schedule dependency of antitumor effect in B-16 melanoma; conditions: toremifene 150 mg/kg p.o. days 1-5
Procedure: as §1

[11] = tested on: CHO-K1 cells; experiment: Doxorubicin transport (accumulation) in CHO-K1 cells; type: cell-based; conditions: 2 μM toremifene; 1 μM doxorubicin; wild-type CHO-K1
[12] = tested on: HOV-007; experiment: Number of living cells (bioluminescence), ovarian cancer line HOV-007; conditions: doxorubicin 0 μg/ml, 3 days
Procedure: (§3) Two human ovarian cell lines were established in vitro from fresh serous ovarian cancer tissues. The lines are coded HOV-007 and HOV-018. The cells were cultivated in Eagle's MEM containing 1% unstripped foetal calf serum. The assays were carried out at 37° C. in 5% CO2 on 96 well plates.
presented. Number of cells was quantitated after 3 days'

[13] = cited from earlier work
[14] = in vitro; conditions: hamster, cho-k1 cells
Procedure: as §4, §5

[15] = tested on: HOV-018; experiment: Number of living cells (bioluminescence), ovarian cancer line HOV-018; conditions: doxorubicin 0 μg/ml
Procedure: as §3

[16] = tested on: MCF-7/DOX cells; experiment: Inhibition of cell growth / reversal of MDR in MCF-7/DOX cells (methylene blue); type: cell-based, human; conditions: for Inhibition of cell growth, Actual: 2880 min
Procedure: The cells were cultivated in 100 ul volumes in 96-well microtiter plates. The principle of the method was to cultivate cells in the presence of the drugs/ drug combinations for 48 hours. After this time the living cells were stained with methylene blue and quantitated spectrophotometrically using microtiter plate reader (Titertek Model MCC/340) interfaced to an Apple IIe computer. Inhibition of the cell growth is expressed as a percentage of absorbance of vehicle treated control cultures.

[17] = drug 3.0 μg/ml +1 μM doxorubicin

CN(C)CCOc1ccc(/C(=C(/CCCl)c2ccccc2)c2ccccc2)cc1 [toremifene]
Effect of AAG on toremifene toxicity ([1]; AAG 2 mg/ml): protected both cell lines from toremifene toxicity | Effect of toremifene on doxorubicin toxicity at highest AAG level ([1]; AAG 2 mg/ml): cell viability was no different from that when doxorubicin alone was present; also recorded: no longer any effect of toremifene on doxorubicin toxicity | AAG concentration above which potentiation by toremifene is gradually reversed ([1]; doxorubicin + 10 μM toremifene): above 0.5 mg/ml | Potentiation of doxorubicin toxicity ([1]; toremifene 1 to 10 μM): incremental potentiation of doxorubicin toxicity | Potentiation of doxorubicin toxicity ([2]; CHO-Adr): the degree of potentiation was greater | Relative potentiation of doxorubicin toxicity, resistant vs wild-type ([2]; CHO-Adr vs CHO-K1, increasing concentrations of toremifene): far greater in the CHO-Adr cell line than in the parent cell line; also recorded: greater for the resistant than the wild-type cells | Effect of AAG on toremifene toxicity ([2]; CHO-Adr, AAG 2 mg/ml): protected both cell lines from toremifene toxicity | Effect of toremifene on doxorubicin toxicity at highest AAG level ([2]; CHO-Adr, AAG 2 mg/ml): cell viability was no different from that when doxorubicin alone was present; also recorded: no longer any effect of toremifene on doxorubicin toxicity | AAG concentration above which potentiation by toremifene is gradually reversed ([2]; CHO-Adr, doxorubicin + 10 μM toremifene): above 0.5 mg/ml | Increase of sensitivity to doxorubicin ([2]; CHO-K1 and CHO-Adr, toremifene concentrations not inhibiting cell growth on their own): can be increased by toremifene concentrations which do not inhibit cell growth on their own | MDR reversing effect in patients' sera [3]: A clear concentration-dependency | Change of tumor diameter [4]: +5.4 mm | Toremifene and doxorubicin in UV-me-1 (living cells) ([5]; toremifene 0.5 μM): 97 | Toremifene and doxorubicin in UV-me-1 (living cells) ([5]; toremifene 5.0 μM): 32 | MCC at 24 h [6]: > 10 µM | Effect of toremifene addition on weight gain [7]: not influenced by toremifene addition | Sensitivity to cytotoxic drugs in human tumors [8]: can increase the sensitivity to cytotoxic drugs in human tumors | Binding to α1-acid glycoprotein [9]: bound in some extent | Change of tumor size [10]: +3.2 mm | Drug accumulation of doxorubicin [11]: enhanced drug accumulation | Number of living cells ([12]; toremifene 1.0 μM): 95% of control values | Number of living cells ([12]; toremifene 3.0 μM): 71% of control values | Number of living cells ([12]; toremifene 10.0 μM): 66% of control values | Safety / toxicity in clinical use ([13]; at dose levels or concentrations required for MDR reversal): very safe drug | maximal tolerated dose ([13]; clinical phase I trials): 400 to 600 mg daily | MCC at 24 h [14]: > 10 µM | Number of living cells ([15]; toremifene 1.0 μM, 4320 min): 104% of control values | Number of living cells ([15]; toremifene 3.0 μM): 99% of control values | Number of living cells ([15]; toremifene 10.0 μM, 4320 min): 97% of control values | Effectiveness in reversing MDR ([16]; MCF-7/DOX cells, Table 5 and FIG. 7): almost equally effective | Inhibition of cell growth, Actual [16, 17]: 38 % control | Potential (potentiation of doxorubicin activity) [16, 17]: 58 % control | Inhibition of cell growth, Actual ([16]; drug […] +1 μM doxorubicin): 31 % control | Potential (potentiation of doxorubicin activity) ([16]; drug […] +1 μM doxorubicin): 48 % control
